Where “and” joins values, the source holds several entries; their conditions need not be identical. Equal values may be shown once.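 48-hour exposure; five concentrations; linearly interpolated endpoints. GI50 marks 50% less growth. The concentration for full growth arrest is given as TGI.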
Assays:
Test in all cases: NCI anticancer screen, dose series, 48 h
[1] = system: A549 NSCLC
[2] = system: CCRF-CEM leukemia
[3] = system: HL-60(TB) leukemia
[4] = system: MDA-MB-231 breast
[5] = system: MOLT-4 leukemia
[6] = system: NCI-H226 lung
[7] = system: NCI-H460 lung
[8] = system: RPMI-8226 leukemia
[9] = system: SF-295 CNS
[10] = system: SNB-19 CNS

| Compound | GI50 [1] | TGI [1] | GI50 [2] | TGI [2] | GI50 [3] | TGI [3] | GI50 [4] | TGI [4] | GI50 [5] | TGI [5] | GI50 [6] | TGI [6] | GI50 [7] | TGI [7] | GI50 [8] | TGI [8] | GI50 [9] | TGI [9] | GI50 [10] | TGI [10] |
| --- | --- | --- | --- | --- | --- | --- | --- | --- | --- | --- | --- | --- | --- | --- | --- | --- | --- | --- | --- | --- |
| CC(C)Oc1cc(OCC(=O)O)cc(C(=O)N(CCC(N)=O)C(=O)Nc2ccc(C(=O)O)cc2OC(C)C)c1 | > 100 µM | > 100 µM | > 100 µM | > 100 µM | > 100 µM | > 100 µM | > 100 µM | > 100 µM | > 100 µM | > 100 µM | > 100 µM | > 100 µM | > 100 µM | > 100 µM | > 100 µM | > 100 µM | > 100 µM | > 100 µM | > 100 µM | > 100 µM |
| CC/C=C/[C@@H]1C=C[C@@H]2CCC[C@H]2[C@@H]1CC[C@H](O)[C@H](C)N | 2.26 µM | 7.05 µM | 4.65 µM | 84.3 µM | 1.33 µM | 2.91 µM | 1.78 µM | 3.22 µM | 1.72 µM | 3.68 µM | 11.9 µM | 27.6 µM | 1.84 µM | 3.46 µM | 3.07 µM | 9.79 µM | 1.75 µM | 3.9 µM | – | – |
| COC1CC(OC2OC(CO)C(O)C(O)C2O)/C(=C\C#N)C(O)C1OC (stereo not drawn) | – | > 100 µM | – | > 100 µM | – | > 100 µM | – | > 100 µM | – | > 100 µM | – | > 100 µM | – | > 100 µM | – | > 100 µM | – | > 100 µM | – | > 100 µM |
| C=C1C(=O)OC(CCCCCCCC)C1C(=O)O (stereo not drawn) | 23.6 µM | > 67.6 µM | 5.49 µM | 38.7 µM | 16.6 µM | 46.4 µM | 17.7 µM | 33.2 µM | 22.2 µM | 54 µM | 19.8 µM | 48.1 µM | 18.6 µM | 37.5 µM | 15 µM | 59.7 µM | 17.6 µM | 37.6 µM | 17 µM | 32.1 µM |
| CC1CN(CCO)CC(C)O1 (stereo not drawn) | – | > 100 µM | – | > 100 µM | – | > 100 µM | – | > 100 µM | – | > 100 µM | – | > 100 µM | – | > 100 µM | – | > 100 µM | – | > 100 µM | – | > 100 µM |
| O=C(Cn1ccnc1[N+](=O)[O-])NCCO | – | > 100 µM | – | > 100 µM | – | > 100 µM | – | > 100 µM | – | – | – | > 100 µM | – | > 100 µM | – | > 100 µM | – | > 100 µM | – | > 100 µM |
| Cc1ccc(CCC(=O)Nc2ncc(Cc3cc(Cl)ccc3Cl)s2)o1 | 0.376 µM | > 58.8 µM | 0.197 µM | > 100 µM | 0.193 µM | 0.589 µM | 0.388 µM | 3.35 µM | 0.222 µM | > 44.2 µM | 0.901 µM | – | 0.233 µM | – | 0.335 µM | 61.1 µM | 0.176 µM | 2.15 µM | 0.33 µM | 5.45 µM |
| COc1ccc(CN2CCc3c(Cl)nc(N)nc3C2=O)c(OC)c1 | 47.2 µM | > 100 µM | 17 µM | 56.6 µM | 1.67 µM | 5.52 µM | 14.8 µM | 30.3 µM | 2.46 µM | 34.6 µM | 18.3 µM | 41.7 µM | 18.6 µM | 42.6 µM | 16 µM | 52.7 µM | 40.3 µM | > 100 µM | 15.8 µM | 33.3 µM |
| COc1cc([C@@H]2c3cc4c(cc3[C@H](OC3OC5COC(c6ccccc6)OC5C(O)C3O)[C@H]3COC(=O)[C@H]23)OCO4)cc(OC)c1OC (stereo partly drawn) | 0.344 µM | 5.68 µM | 0.57 µM | – | 0.342 µM | 1.46 µM | 0.422 µM | 29 µM | – | – | 4.58 µM | 37.6 µM | 0.282 µM | 2.92 µM | 0.263 µM | 1 µM | 0.27 µM | – | 0.405 µM | 16 µM |
| O=C(CCCCCCc1nc2ccc(Br)cc2[nH]1)NO | 0.578 µM | 11.3 µM | 0.405 µM | > 100 µM | 0.461 µM | > 100 µM | 0.824 µM | 25 µM | 0.342 µM | > 100 µM | 1.65 µM | 7.37 µM | 0.386 µM | 10.6 µM | 0.411 µM | > 100 µM | 0.471 µM | 2.84 µM | 0.689 µM | > 30 µM |
| O=C1CCCC1C(=O)Nc1ccc2ccccc2c1 (stereo not drawn) | – | > 100 µM | – | > 100 µM | – | > 100 µM | – | > 100 µM | – | > 100 µM | – | > 100 µM | – | > 100 µM | – | > 100 µM | – | > 100 µM | – | > 100 µM |
| N#Cc1c(N)nn(C(=O)c2ccc(NC(=O)c3ccccn3)cc2)c1-c1ccc(Cl)cc1 | 3.24 µM | 12.8 µM | 8.86 µM | > 100 µM | > 100 µM | > 100 µM | 11.6 µM | > 100 µM | 25.7 µM | > 100 µM | 3.08 µM | 31 µM | 4.02 µM | 61.7 µM | > 100 µM | > 100 µM | 3.06 µM | 15.7 µM | 4.15 µM | 33.3 µM |
| Cc1nc2c(cnn2-c2ccnc3c(C(F)(F)F)cccc23)c(=O)o1 | > 100 µM | > 100 µM | > 100 µM | > 100 µM | > 100 µM | > 100 µM | > 100 µM | > 100 µM | > 100 µM | > 100 µM | > 100 µM | > 100 µM | > 100 µM | > 100 µM | > 100 µM | > 100 µM | > 100 µM | > 100 µM | > 100 µM | > 100 µM |
| Cc1cc(O)c2c(c1)C[C@@H](O)C1=C2C(=O)c2c(O)ccc(OC3CC(O)C(OC4CC(OC5CCC(OC6CC(O)C(OC7CC(OC8CCC(O)C(C)O8)C(O)C(C)O7)C(C)O6)C(C)O5)C(O)C(C)O4)C(C)O3)c2C1=O (stereo partly drawn) | 2.38 µM | – | 0.0386 µM | 0.255 µM and 0.266 µM | 0.112 µM | 0.134 µM and 0.291 µM | 0.433 µM and 0.251 µM | 0.259 µM and 1.49 µM and 0.549 µM | 0.0541 µM | 0.216 µM and 0.343 µM | 1.48 µM | 0.461 µM and 3.07 µM | – | 0.485 µM | 0.321 µM and 0.483 µM | – | 1.5 µM and 3.02 µM | – | 1.41 µM and 1.24 µM | 0.335 µM and 2.88 µM and 2.67 µM |
| C=C1C(=O)O[C@@H]2[C@@H]3O[C@@](C)(CC/C=C(\C)CCC[C@@H]2C)[C@H](O)C[C@@H]13 | 3.73 µM | 14.7 µM | 3.01 µM | 21.3 µM | – | 8.1 µM | 2.39 µM | 7.18 µM | 2.75 µM | 7.64 µM | 12.5 µM | 26.3 µM | – | 31.6 µM | – | > 100 µM | – | 27.6 µM | 14.6 µM | 28.6 µM |

— PubChem BioAssay (NCI)
